Tested on: patients after acute myocardial infarction
Assay: Life quality, Seattle Angina Questionnaire (SAQ), same clinical trial
Format: in vivo, human
From the text: 3508 patients who were in accordance with the diagnostic standards of AMI for 28 days to 2 years and differentiated as Qi deficiency and blood stagnation syndrome by TCM were studied. 0.5 g Chinese medicine composition prepared by the method of EXAMPLE 1 (Coded as QSYQ) was administrated half an hour after meal, 3 times per day.
There were 19 questions in the Seattle angina questionnaire (SAQ), including 5 parts: physical limitation (PL), anginal stability (AS), anginal frequency (AF), treatment satisfaction (TS) and disease perception (DP). After being given necessary explanation by doctors, the questions were answered independently by patients.
They included the overall survival time, angina pectoris score, TCM symptom score and life quality score, where angina pectoris score, TCM symptom score and life quality score were evaluated at randomization, in 1st, 3rd, 6th, 9th, 12th month after treatment and 18th month after follow-up.
All evaluation results of SAQ were described during the period of observation, and Wilcoxon rank sum test was used for inter-group comparison.
The evaluation results in the SAQ were depicted in different observations, and inter-group comparison was tested by Wilcoxon Rank-sum test.

With `CC(=O)Oc1ccccc1C(=O)O` [Control group, aspirine] the “SAQ Question 1-4: Slightly limited, percent of patients” value (9 months after treatment, PP) was “(32.89%)”, the “SAQ Question 1-5: Mildly limited, number of patients” value (9 months after treatment, PP) was 226 and the “SAQ Question 1-5: Mildly limited, percent of patients” value (9 months after treatment, PP) was “(15.75%)”. The “SAQ Question 1-5: Moderately limited, number of patients” value (9 months after treatment, PP) was 77, the “SAQ Question 1-5: Moderately limited, percent of patients” value (9 months after treatment, PP) was “(5.37%)” and the “SAQ Question 1-5: Not limited, number of patients” value (9 months after treatment, PP) was 705. For the same compound, the “SAQ Question 1-5: Not limited, percent of patients” value (9 months after treatment, PP) was “(49.13%)”, the “SAQ Question 1-5: Other reasons, number of patients” value (9 months after treatment, PP) was 10 and the “SAQ Question 1-5: Other reasons, percent of patients” value (9 months after treatment, PP) was “(0.70%)”. The “SAQ Question 1-5: Severely limited, number of patients” value (9 months after treatment, PP) was 9, the “SAQ Question 1-5: Severely limited, percent of patients” value (9 months after treatment, PP) was “(0.63%)” and the “SAQ Question 1-5: Slightly limited, number of patients” value (9 months after treatment, PP) was 408. The “SAQ Question 1-5: Slightly limited, percent of patients” value (9 months after treatment, PP) was “(28.43%)”, the “SAQ Question 1-9: Mildly limited, % of cases” value (9 months after treatment, PP) was “(19.70%)” and the “SAQ Question 1-9: Mildly limited, cases” value (9 months after treatment, PP) was 275. For the same compound, the “SAQ Question 1-9: Moderately limited, % of cases” value (9 months after treatment, PP) was “(20.92%)”, the “SAQ Question 1-9: Moderately limited, cases” value (9 months after treatment, PP) was 292 and the “SAQ Question 1-9: Not limited, % of cases” value (9 months after treatment, PP) was “(4.23%)”. For the same compound, the “SAQ Question 1-9: Not limited, cases” value (9 months after treatment, PP) was 59, the “SAQ Question 1-9: Other reasons, % of cases” value (9 months after treatment, PP) was “(5.80%)” and the “SAQ Question 1-9: Other reasons, cases” value (9 months after treatment, PP) was 81. The “SAQ Question 1-9: Severely limited, % of cases” value (9 months after treatment, PP) was “(32.38%)”, the “SAQ Question 1-9: Severely limited, cases” value (9 months after treatment, PP) was 452 and the “SAQ Question 1-9: Slightly limited, % of cases” value (9 months after treatment, PP) was “(16.98%)”. For the same compound, the “SAQ Question 1-9: Slightly limited, cases” value (9 months after treatment, PP) was 237, the “SAQ 2nd question: 6, % of cases” value (12 months after treatment, FAS) was “(0.00%)” and the “SAQ 2nd question: 6, cases” value (12 months after treatment, FAS) was 0. For the same compound, the “SAQ 2nd question: Clearly increased, % of cases” value (12 months after treatment, FAS) was “(1.32%)”, the “SAQ 2nd question: Clearly increased, cases” value (12 months after treatment, FAS) was 23 and the “SAQ 2nd question: Clearly reduced, % of cases” value (12 months after treatment, FAS) was “(27.55%)”. For the same compound, the “SAQ 2nd question: Clearly reduced, cases” value (12 months after treatment, FAS) was 480, the “SAQ 2nd question: Same, % of cases” value (12 months after treatment, FAS) was “(37.83%)” and the “SAQ 2nd question: Same, cases” value (12 months after treatment, FAS) was 659. The “SAQ 2nd question: Slightly increased, % of cases” value (12 months after treatment, FAS) was “(3.16%)”, the “SAQ 2nd question: Slightly increased, cases” value (12 months after treatment, FAS) was 55 and the “SAQ 2nd question: Slightly reduced, % of cases” value (12 months after treatment, FAS) was “(30.14%)”. For the same compound, the “SAQ 2nd question: Slightly reduced, cases” value (12 months after treatment, FAS) was 525, the “SAQ 3rd question: 1-2 times per week, % of cases” value (12 months after treatment, FAS) was “(30.14%)” and the “SAQ 3rd question: 1-2 times per week, cases” value (12 months after treatment, FAS) was 525. For the same compound, the “SAQ 3rd question: 1-3 times per day, % of cases” value (12 months after treatment, FAS) was “(3.16%)”, the “SAQ 3rd question: 1-3 times per day, cases” value (12 months after treatment, FAS) was 55 and the “SAQ 3rd question: <1 time per week, % of cases” value (12 months after treatment, FAS) was “(27.55%)”. For the same compound, the “SAQ 3rd question: <1 time per week, cases” value (12 months after treatment, FAS) was 480, the “SAQ 3rd question: No onset, % of cases” value (12 months after treatment, FAS) was “(0.00%)” and the “SAQ 3rd question: No onset, cases” value (12 months after treatment, FAS) was 0. The “SAQ 3rd question: ≧3 times per week, % of cases” value (12 months after treatment, FAS) was “(37.83%)”, the “SAQ 3rd question: ≧3 times per week, cases” value (12 months after treatment, FAS) was 659 and the “SAQ 3rd question: ≧4 times per day, % of cases” value (12 months after treatment, FAS) was “(1.32%)”. The “SAQ 3rd question: ≧4 times per day, cases” value (12 months after treatment, FAS) was 23, the “SAQ Question 1-3: Mildly limited, number of patients” value (12 months after treatment, FAS) was 54 and the “SAQ Question 1-3: Mildly limited, percent of patients” value (12 months after treatment, FAS) was “(3.10%)”. The “SAQ Question 1-3: Moderately limited, number of patients” value (12 months after treatment, FAS) was 11, the “SAQ Question 1-3: Moderately limited, percent of patients” value (12 months after treatment, FAS) was “(0.63%)” and the “SAQ Question 1-3: Not limited, number of patients” value (12 months after treatment, FAS) was 1471. For the same compound, the “SAQ Question 1-3: Not limited, percent of patients” value (12 months after treatment, FAS) was “(84.35%)”, the “SAQ Question 1-3: Other reasons, number of patients” value (12 months after treatment, FAS) was 10 and the “SAQ Question 1-3: Other reasons, percent of patients” value (12 months after treatment, FAS) was “(0.57%)”. The “SAQ Question 1-3: Severely limited, number of patients” value (12 months after treatment, FAS) was 2, the “SAQ Question 1-3: Severely limited, percent of patients” value (12 months after treatment, FAS) was “(0.11%)” and the “SAQ Question 1-3: Slightly limited, number of patients” value (12 months after treatment, FAS) was 196. For the same compound, the “SAQ Question 1-3: Slightly limited, percent of patients” value (12 months after treatment, FAS) was “(11.24%)”, the “SAQ Question 1-4: Mildly limited, number of patients” value (12 months after treatment, FAS) was 236 and the “SAQ Question 1-4: Mildly limited, percent of patients” value (12 months after treatment, FAS) was “(13.53%)”. For the same compound, the “SAQ Question 1-4: Moderately limited, number of patients” value (12 months after treatment, FAS) was 66, the “SAQ Question 1-4: Moderately limited, percent of patients” value (12 months after treatment, FAS) was “(3.78%)” and the “SAQ Question 1-4: Not limited, number of patients” value (12 months after treatment, FAS) was 853. The “SAQ Question 1-4: Not limited, percent of patients” value (12 months after treatment, FAS) was “(48.91%)”, the “SAQ Question 1-4: Other reasons, number of patients” value (12 months after treatment, FAS) was 11 and the “SAQ Question 1-4: Other reasons, percent of patients” value (12 months after treatment, FAS) was “(0.63%)”. The “SAQ Question 1-4: Severely limited, number of patients” value (12 months after treatment, FAS) was 13, the “SAQ Question 1-4: Severely limited, percent of patients” value (12 months after treatment, FAS) was “(0.75%)” and the “SAQ Question 1-4: Slightly limited, number of patients” value (12 months after treatment, FAS) was 565. For the same compound, the “SAQ Question 1-4: Slightly limited, percent of patients” value (12 months after treatment, FAS) was “(32.40%)”, the “SAQ Question 1-5: Mildly limited, number of patients” value (12 months after treatment, FAS) was 260 and the “SAQ Question 1-5: Mildly limited, percent of patients” value (12 months after treatment, FAS) was “(14.92%)”. For the same compound, the “SAQ Question 1-5: Moderately limited, number of patients” value (12 months after treatment, FAS) was 79 and the “SAQ Question 1-5: Moderately limited, percent of patients” value (12 months after treatment, FAS) was “(4.53%)”.
